The values below come from patent US20120121591A1 (priority 2009, published 2012).

Type in all cases: cell-based
One assay deals with hKv1.3 (Homo sapiens, UniProt P22001). The assay can be described thus: cell-based. Conditions: Kv1.3 (IWQ) IC50 (nM, Avg).
Assay [1] concerns IFN-g secretion from T cells in human whole blood. Conditions: read-out: WB (IFNg) IC50 (nM, Avg).
The test system of assay [2] is IL-2 secretion from T cells in human whole blood. Conditions: read-out: WB (IL-2) IC50 (nM, Avg).

hKv1.3, sequence (P22001 whole entry): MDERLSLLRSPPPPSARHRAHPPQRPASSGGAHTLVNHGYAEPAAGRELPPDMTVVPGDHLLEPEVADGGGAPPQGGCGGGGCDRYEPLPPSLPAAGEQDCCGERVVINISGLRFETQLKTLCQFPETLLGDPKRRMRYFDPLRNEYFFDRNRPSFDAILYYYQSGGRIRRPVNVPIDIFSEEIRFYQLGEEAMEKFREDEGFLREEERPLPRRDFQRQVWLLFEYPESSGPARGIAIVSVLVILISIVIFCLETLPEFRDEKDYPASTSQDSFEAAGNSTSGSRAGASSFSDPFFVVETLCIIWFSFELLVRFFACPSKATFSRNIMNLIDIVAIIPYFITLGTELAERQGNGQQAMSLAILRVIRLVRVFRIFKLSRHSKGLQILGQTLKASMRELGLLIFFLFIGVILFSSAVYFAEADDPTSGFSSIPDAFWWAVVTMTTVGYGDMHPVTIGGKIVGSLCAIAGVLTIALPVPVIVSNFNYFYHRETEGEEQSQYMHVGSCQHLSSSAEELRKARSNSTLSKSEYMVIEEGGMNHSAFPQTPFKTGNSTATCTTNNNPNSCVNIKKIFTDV

Turning to `CC[C@H](C)[C@@H]1NC(=O)[C@H]([C@@H](C)O)NC(=O)[C@H](CC(=O)O)NC(=O)[C@H](CCC(=O)O)NC(=O)[C@@H](NC(=O)[C@H](CO)NC(=O)[C@@H](N)CCCNC(=N)N)CSSC[C@@H](C(N)=O)NC(=O)[C@H]([C@@H](C)O)NC(=O)CNC(=O)[C@@H]2CSSC[C@@H]3NC(=O)[C@H](CCCCN)NC(=O)[C@H](Cc4ccccc4)NC(=O)[C@H](C)NC(=O)[C@H]([C@@H](C)O)NC(=O)[C@H](CSSC[C@H](NC(=O)[C@H](Cc4ccccc4)NC(=O)[C@H](CO)NC(=O)[C@H](CC(C)C)NC(=O)[C@H](CCCNC(=N)N)NC(=O)[C@H](Cc4ccc(O)cc4)NC(=O)[C@H](CCCCN)NC(=O)[C@H]([C@@H](C)O)NC(=O)[C@H](CO)NC(=O)[C@H](Cc4c[nH]cn4)NC(=O)[C@H](CCCCN)NC3=O)C(=O)N[C@@H](CCCNC(=N)N)C(=O)N[C@@H](CCCCN)C(=O)N[C@@H]([C@@H](C)O)C(=O)N2)NC(=O)[C@H](CCCNC(=N)N)NC(=O)[C@H](CO)NC(=O)[C@H](CCCCN)NC(=O)[C@@H]2CCCN2C1=O` [[Glu4, Lys16,Thr21]ShK-amide], the half-maximal inhibitory concentration (IC50) was found to be 0.085 nM against hKv1.3, 3.94 nM in assay [1] and 1.38 nM in assay [2].

As for `CCCC[C@@H]1NC(=O)[C@H](CO)NC(=O)[C@H](Cc2c[nH]cn2)NC(=O)[C@H](CCCCN)NC(=O)[C@@H]2CSSC[C@@H]3NC(=O)[C@H]([C@@H](C)O)NC(=O)[C@H](CCCCN)NC(=O)[C@H](CCCNC(=N)N)NC(=O)[C@H](CSSC[C@H](NC(=O)[C@H](CCCNC(=N)N)NC(=O)[C@H](CO)NC(=O)[C@H](CCCCN)NC(=O)[C@@H]4CCCN4C(=O)[C@H]([C@@H](C)CC)NC(=O)[C@H]([C@@H](C)O)NC(=O)[C@H](CC(=O)O)NC(=O)[C@H](CCC(=O)O)NC(=O)[C@@H](NC(=O)[C@H](CO)NC(=O)[C@@H](N)CCCNC(=N)N)CSSC[C@@H](C(N)=O)NC(=O)[C@H]([C@@H](C)O)NC(=O)CNC3=O)C(=O)N[C@@H]([C@@H](C)O)C(=O)N[C@@H](C)C(=O)N[C@@H](C)C(=O)N[C@@H](CCCCN)C(=O)N2)NC(=O)[C@H](Cc2ccccc2)NC(=O)[C@H](CO)NC(=O)[C@H](CC(C)C)NC(=O)[C@H](CCCNC(=N)N)NC(=O)[C@H](Cc2ccc(O)cc2)NC(=O)[C@H](CCCCN)NC1=O` [[Glu4,A1a15,Lys16,Nle21]ShK-amide], the figures for the IC50 (against hKv1.3; in assay [1]; in assay [2]) were 0.168 nM, 0.901 nM and 0.856 nM, respectively.

For the compound `CCCC[C@@H]1NC(=O)[C@H](CO)NC(=O)[C@H](Cc2c[nH]cn2)NC(=O)[C@H](CCCCN)NC(=O)[C@@H]2CSSC[C@@H]3NC(=O)[C@H]([C@@H](C)O)NC(=O)[C@H](CCCNC(=N)N)NC(=O)[C@H](CCCNC(=N)N)NC(=O)[C@H](CSSC[C@H](NC(=O)[C@H](CCCNC(=N)N)NC(=O)[C@H](CO)NC(=O)[C@H](CCCCN)NC(=O)[C@@H]4CCCN4C(=O)[C@H]([C@@H](C)CC)NC(=O)[C@H]([C@@H](C)O)NC(=O)[C@H](CC(=O)O)NC(=O)[C@H](CCC(=O)O)NC(=O)[C@@H](NC(=O)[C@H](CO)NC(=O)[C@@H](N)CCCNC(=N)N)CSSC[C@@H](C(N)=O)NC(=O)[C@H]([C@@H](C)O)NC(=O)CNC3=O)C(=O)N[C@@H]([C@@H](C)O)C(=O)N[C@@H](C)C(=O)N[C@@H](C)C(=O)N[C@@H](CCCCN)C(=O)N2)NC(=O)[C@H](Cc2ccccc2)NC(=O)[C@H](CO)NC(=O)[C@H](CC(C)C)NC(=O)[C@H](CCCNC(=N)N)NC(=O)[C@H](Cc2ccc(O)cc2)NC(=O)[C@H](CCCCN)NC1=O` [[Glu4,Ala15,Lys16,Nle21, Arg30]ShK-amide], the results for the concentration for half-maximal inhibition (IC50) (on hKv1.3; in assay [1]; in assay [2]) were 0.118 nM, 0.816 nM and 0.647 nM, respectively.

On to `CC[C@H](C)[C@@H]1NC(=O)[C@H]([C@@H](C)O)NC(=O)[C@H](CC(=O)O)NC(=O)[C@H](CCC(=O)O)NC(=O)[C@@H](NC(=O)[C@H](CO)NC(=O)[C@@H](N)CCCNC(=N)N)CSSC[C@@H](C(=O)O)NC(=O)[C@H]([C@@H](C)O)NC(=O)CNC(=O)[C@@H]2CSSC[C@@H]3NC(=O)[C@H](CCCCN)NC(=O)[C@H](C)NC(=O)[C@H](C)NC(=O)[C@H]([C@@H](C)O)NC(=O)[C@H](CSSC[C@H](NC(=O)[C@H](Cc4ccccc4)NC(=O)[C@H](CO)NC(=O)[C@H](CC(C)C)NC(=O)[C@H](CCCNC(=N)N)NC(=O)[C@H](Cc4ccc(O)cc4)NC(=O)[C@H](CCCCN)NC(=O)[C@H](CCSC)NC(=O)[C@H](CO)NC(=O)[C@H](Cc4c[nH]cn4)NC(=O)[C@H](CCCCN)NC3=O)C(=O)N[C@@H](CCCNC(=N)N)C(=O)N[C@@H](CCCNC(=N)N)C(=O)N[C@@H]([C@@H](C)O)C(=O)N2)NC(=O)[C@H](CCCNC(=N)N)NC(=O)[C@H](CCCNC(=N)N)NC(=O)[C@H](CCCCN)NC(=O)[C@@H]2CCCN2C1=O` [[Glu4,Arg10,30,A1a15,Lys16]ShK], for which the IC50 on hKv1.3 was determined as 0.14 nM; in assay [1], 0.305 nM; in assay [2] it was 0.209 nM.

Take `CC[C@H](C)[C@@H]1NC(=O)[C@H]([C@@H](C)O)NC(=O)[C@H](CC(=O)O)NC(=O)[C@H](CCC(=O)O)NC(=O)[C@@H](NC(=O)[C@H](CO)NC(=O)[C@@H](N)CCCNC(=N)N)CSSC[C@@H](C(=O)N[C@@H](C)C(=O)O)NC(=O)[C@H]([C@@H](C)O)NC(=O)CNC(=O)[C@@H]2CSSC[C@@H]3NC(=O)[C@H](CCCCN)NC(=O)[C@H](Cc4ccccc4)NC(=O)[C@H](C)NC(=O)[C@H]([C@@H](C)O)NC(=O)[C@H](CSSC[C@H](NC(=O)[C@H](Cc4ccccc4)NC(=O)[C@H](CO)NC(=O)[C@H](CC(C)C)NC(=O)[C@H](CCCNC(=N)N)NC(=O)[C@H](Cc4ccc(O)cc4)NC(=O)[C@H](CCCCN)NC(=O)[C@H](CCC(N)=O)NC(=O)[C@H](CO)NC(=O)[C@H](Cc4c[nH]cn4)NC(=O)[C@H](CCCCN)NC3=O)C(=O)N[C@@H](CCCNC(=N)N)C(=O)N[C@@H](CCCCN)C(=O)N[C@@H]([C@@H](C)O)C(=O)N2)NC(=O)[C@H](CCCNC(=N)N)NC(=O)[C@H](CO)NC(=O)[C@H](CCCCN)NC(=O)[C@@H]2CCCN2C1=O` [[Glu4,Lys16,Gln21]ShK-Ala]: the IC50 is 26.4 nM against hKv1.3, 0.265 nM in assay [1] and 0.137 nM in assay [2].

As to `CCCC[C@@H]1NC(=O)[C@H](CO)NC(=O)[C@H](Cc2c[nH]cn2)NC(=O)[C@H](CCCCN)NC(=O)[C@@H]2CSSC[C@@H]3NC(=O)[C@H]([C@@H](C)O)NC(=O)[C@H](CCCCN)NC(=O)[C@H](CCCNC(=N)N)NC(=O)[C@H](CSSC[C@H](NC(=O)[C@H](CCCNC(=N)N)NC(=O)[C@H](CO)NC(=O)[C@H](CCCCN)NC(=O)[C@@H]4CCCN4C(=O)[C@H]([C@@H](C)CC)NC(=O)[C@H]([C@@H](C)O)NC(=O)[C@H](CC(=O)O)NC(=O)[C@H](CCC(=O)O)NC(=O)[C@@H](NC(=O)[C@H](CO)NC(=O)[C@@H](N)CCCNC(=N)N)CSSC[C@@H](C(=O)N[C@@H](C)C(=O)O)NC(=O)[C@H]([C@@H](C)O)NC(=O)CNC3=O)C(=O)N[C@@H]([C@@H](C)O)C(=O)N[C@@H](C)C(=O)N[C@@H](Cc3ccccc3)C(=O)N[C@@H](CCCCN)C(=O)N2)NC(=O)[C@H](Cc2ccccc2)NC(=O)[C@H](CO)NC(=O)[C@H](CC(C)C)NC(=O)[C@H](CCCNC(=N)N)NC(=O)[C@H](Cc2ccc(O)cc2)NC(=O)[C@H](CCCCN)NC1=O` [[Glu4,Lys16,N1e21]ShK-Ala], the IC50 against hKv1.3 came out at 33.3 nM; in assay [1], 0.987 nM; in assay [2] it was 0.327 nM.

For orientation: IC50 means the concentration needed to halve the response being measured.
